In ChEMBL document CHEMBL2150993, “Substituted thiazoles VII. Synthesis and antitumor activity of certain 2-(substituted amino)-4-phenyl-1,3-thiazole analogs” (2012):

Tests used:
Format in all cases: functional
Conditions in all cases: at 10 µM
PC-3 = assay: Growth inhibition of human PC3 cells after 48 hrs by cell counting analysis
[1] = Growth inhibition of human NCI-ADR-RES cells after 48 hrs by cell counting analysis
MDA-MB-435 = assay: Growth inhibition of human MDA-MB-435 cells after 48 hrs by cell counting analysis
SF-268 = assay: Growth inhibition of human SF268 cells after 48 hrs by cell counting analysis
NCI-H522 = assay: Growth inhibition of human NCI-H522 cells after 48 hrs by cell counting analysis
SK-OV-3 = assay: Growth inhibition of human SKOV3 cells after 48 hrs by cell counting analysis
UACC-257 = assay: Growth inhibition of human UACC257 cells after 48 hrs by cell counting analysis
SK-MEL-2 = assay: Growth inhibition of human SK-MEL-2 cells after 48 hrs by cell counting analysis
[2] = Growth inhibition of human NCI-322M cells after 48 hrs by cell counting analysis
CCRF-CEM = assay: Growth inhibition of human CCRF-CEM cells after 48 hrs by cell counting analysis
MCF7 = assay: Growth inhibition of human MCF7 cells after 48 hrs by cell counting analysis
HOP-62 = assay: Growth inhibition of human HOP62 cells after 48 hrs by cell counting analysis
EKVX = assay: Growth inhibition of human EKVX cells after 48 hrs by cell counting analysis
CAKI-1 = assay: Growth inhibition of human Caki1 cells after 48 hrs by cell counting analysis
SN12C = assay: Growth inhibition of human SN12C cells after 48 hrs by cell counting analysis
SK-MEL-5 = assay: Growth inhibition of human SK-MEL-5 cells after 48 hrs by cell counting analysis
LOX IMVI = assay: Growth inhibition of human LOXIMVI cells after 48 hrs by cell counting analysis
HT-29 = assay: Growth inhibition of human HT-29 cells after 48 hrs by cell counting analysis
NCI-H23 = assay: Growth inhibition of human NCI-H23 cells after 48 hrs by cell counting analysis
BT-549 = assay: Growth inhibition of human BT549 cells after 48 hrs by cell counting analysis
HL-60 = assay: Growth inhibition of human HL60 cells after 48 hrs by cell counting analysis
MOLT-4 = assay: Growth inhibition of human MOLT4 cells after 48 hrs by cell counting analysis
RXF 393 = assay: Growth inhibition of human RXF393 cells after 48 hrs by cell counting analysis
OVCAR-8 = assay: Growth inhibition of human OVCAR8 cells after 48 hrs by cell counting analysis
SNB-75 = assay: Growth inhibition of human SNB75 cells after 48 hrs by cell counting analysis
SW-620 = assay: Growth inhibition of human SW620 cells after 48 hrs by cell counting analysis
SF-539 = assay: Growth inhibition of human SF539 cells after 48 hrs by cell counting analysis
K562 = assay: Growth inhibition of human K562 cells after 48 hrs by cell counting analysis
UACC-62 = assay: Growth inhibition of human UACC62 cells after 48 hrs by cell counting analysis
HOP-92 = assay: Growth inhibition of human HOP92 cells after 48 hrs by cell counting analysis
HCT-15 = assay: Growth inhibition of human HCT15 cells after 48 hrs by cell counting analysis
SK-MEL-28 = assay: Growth inhibition of human SK-MEL-28 cells after 48 hrs by cell counting analysis
KM12 = assay: Growth inhibition of human KM12 cells after 48 hrs by cell counting analysis
T47D = assay: Growth inhibition of human T47D cells after 48 hrs by cell counting analysis
OVCAR-3 = assay: Growth inhibition of human OVCAR3 cells after 48 hrs by cell counting analysis
U-251 = assay: Growth inhibition of human U251 cells after 48 hrs by cell counting analysis
UO-31 = assay: Growth inhibition of human UO31 cells after 48 hrs by cell counting analysis
SR = assay: Growth inhibition of human SR cells after 48 hrs by cell counting analysis
NCI-H226 = assay: Growth inhibition of human NCI-H226 cells after 48 hrs by cell counting analysis
IGROV-1 = assay: Growth inhibition of human IGROV1 cells after 48 hrs by cell counting analysis
MDA-MB-468 = assay: Growth inhibition of human MDA-MB-468 cells after 48 hrs by cell counting analysis
SF-295 = assay: Growth inhibition of human SF295 cells after 48 hrs by cell counting analysis
OVCAR-5 = assay: Growth inhibition of human OVCAR5 cells after 48 hrs by cell counting analysis
TK-10 = assay: Growth inhibition of human TK10 cells after 48 hrs by cell counting analysis
HCT-116 = assay: Growth inhibition of human HCT116 cells after 48 hrs by cell counting analysis
SNB-19 = assay: Growth inhibition of human SNB19 cells after 48 hrs by cell counting analysis
HCC 2998 = assay: Growth inhibition of human HCC2998 cells after 48 hrs by cell counting analysis
ACHN = assay: Growth inhibition of human ACHN cells after 48 hrs by cell counting analysis
A549 = assay: Growth inhibition of human A549 cells after 48 hrs by cell counting analysis
RPMI-8226 = assay: Growth inhibition of human RPMI8226 cells after 48 hrs by cell counting analysis
OVCAR-4 = assay: Growth inhibition of human OVCAR4 cells after 48 hrs by cell counting analysis
MDA-MB-231 = assay: Growth inhibition of human MDA-MB-231 cells after 48 hrs by cell counting analysis
M14 = assay: Growth inhibition of human M14 cells after 48 hrs by cell counting analysis
Malme-3M = assay: Growth inhibition of human MALME-3M cells after 48 hrs by cell counting analysis

## Cn1cc(NC(=O)c2cc(NC(=O)CNC(=N)N)cn2C)cc1C(=O)NCCC(=N)N [NETROPSIN]
PC-3
  growth inhibition (GI): 17.8%
[1]
  growth inhibition (GI): 17%
MDA-MB-435
  growth inhibition (GI): <10%
SF-268
  growth inhibition (GI): <10%
NCI-H522
  growth inhibition (GI): 28.2%
SK-OV-3
  growth inhibition (GI): <10%
UACC-257
  growth inhibition (GI): <10%
SK-MEL-2
  growth inhibition (GI): <10%
[2]
  growth inhibition (GI): 11.1%
CCRF-CEM
  growth inhibition (GI): 15.3%
MCF7
  growth inhibition (GI): 13.7%
HOP-62
  growth inhibition (GI): 10.9%
EKVX
  growth inhibition (GI): 19.5%
CAKI-1
  growth inhibition (GI): 28.9%
SN12C
  growth inhibition (GI): <10%
SK-MEL-5
  growth inhibition (GI): 23.7%
LOX IMVI
  growth inhibition (GI): <10%
HT-29
  growth inhibition (GI): 10.8%
NCI-H23
  growth inhibition (GI): 13.9%
BT-549
  growth inhibition (GI): 12.9%
HL-60
  growth inhibition (GI): 12.6%
MOLT-4
  growth inhibition (GI): 33.2%
RXF 393
  growth inhibition (GI): <10%
OVCAR-8
  growth inhibition (GI): <10%
SNB-75
  growth inhibition (GI): 29.8%
SW-620
  growth inhibition (GI): <10%
SF-539
  growth inhibition (GI): <10%
K562
  growth inhibition (GI): 25.1%
UACC-62
  growth inhibition (GI): 29%
HOP-92
  growth inhibition (GI): <10%
HCT-15
  growth inhibition (GI): <10%
SK-MEL-28
  growth inhibition (GI): <10%
KM12
  growth inhibition (GI): <10%
T47D
  growth inhibition (GI): 25.2%
OVCAR-3
  growth inhibition (GI): <10%
U-251
  growth inhibition (GI): <10%
UO-31
  growth inhibition (GI): 30.6%
SR
  growth inhibition (GI): <10%
NCI-H226
  growth inhibition (GI): 14.5%
IGROV-1
  growth inhibition (GI): 17.4%
MDA-MB-468
  growth inhibition (GI): 25.7%
SF-295
  growth inhibition (GI): 14.4%
OVCAR-5
  growth inhibition (GI): <10%
TK-10
  growth inhibition (GI): <10%
HCT-116
  growth inhibition (GI): 10.7%
SNB-19
  growth inhibition (GI): 10.5%
HCC 2998
  growth inhibition (GI): <10%
ACHN
  growth inhibition (GI): <10%
A549
  growth inhibition (GI): 10.3%
RPMI-8226
  growth inhibition (GI): 28.9%
OVCAR-4
  growth inhibition (GI): <10%
MDA-MB-231
  growth inhibition (GI): 23.4%
M14
  growth inhibition (GI): <10%
Malme-3M
  growth inhibition (GI): 12.4%

## Cc1ccc(-c2csc(NC(=O)CCN3CCN(c4ccccc4)CC3)n2)cc1
PC-3
  growth inhibition (GI): 16.1%
[1]
  growth inhibition (GI): <10%
MDA-MB-435
  growth inhibition (GI): <10%
SF-268
  growth inhibition (GI): <10%
NCI-H522
  growth inhibition (GI): <10%
SK-OV-3
  growth inhibition (GI): <10%
UACC-257
  growth inhibition (GI): <10%
SK-MEL-2
  growth inhibition (GI): <10%
[2]
  growth inhibition (GI): 15.6%
CCRF-CEM
  growth inhibition (GI): <10%
MCF7
  growth inhibition (GI): <10%
HOP-62
  growth inhibition (GI): <10%
EKVX
  growth inhibition (GI): 16.6%
CAKI-1
  growth inhibition (GI): 14.1%
SN12C
  growth inhibition (GI): <10%
SK-MEL-5
  growth inhibition (GI): <10%
LOX IMVI
  growth inhibition (GI): <10%
HT-29
  growth inhibition (GI): <10%
NCI-H23
  growth inhibition (GI): 14.5%
BT-549
  growth inhibition (GI): <10%
HL-60
  growth inhibition (GI): <10%
MOLT-4
  growth inhibition (GI): 14.9%
RXF 393
  growth inhibition (GI): <10%
OVCAR-8
  growth inhibition (GI): <10%
SNB-75
  growth inhibition (GI): <10%
SW-620
  growth inhibition (GI): <10%
SF-539
  growth inhibition (GI): <10%
K562
  growth inhibition (GI): <10%
UACC-62
  growth inhibition (GI): 16.3%
HOP-92
  growth inhibition (GI): 10.2%
HCT-15
  growth inhibition (GI): <10%
SK-MEL-28
  growth inhibition (GI): <10%
KM12
  growth inhibition (GI): <10%
T47D
  growth inhibition (GI): <10%
OVCAR-3
  growth inhibition (GI): <10%
U-251
  growth inhibition (GI): <10%
UO-31
  growth inhibition (GI): 41.2%
SR
  growth inhibition (GI): <10%
NCI-H226
  growth inhibition (GI): <10%
IGROV-1
  growth inhibition (GI): 14.9%
MDA-MB-468
  growth inhibition (GI): <10%
SF-295
  growth inhibition (GI): <10%
OVCAR-5
  growth inhibition (GI): <10%
TK-10
  growth inhibition (GI): <10%
HCT-116
  growth inhibition (GI): <10%
SNB-19
  growth inhibition (GI): <10%
HCC 2998
  growth inhibition (GI): <10%
ACHN
  growth inhibition (GI): <10%
A549
  growth inhibition (GI): 23.8%
RPMI-8226
  growth inhibition (GI): <10%
OVCAR-4
  growth inhibition (GI): 11.1%
MDA-MB-231
  growth inhibition (GI): <10%
M14
  growth inhibition (GI): <10%
Malme-3M
  growth inhibition (GI): 12.1%

## O=C(CCN1CCN(c2ccccc2)CC1)Nc1nc(-c2ccc(Cl)cc2)cs1
PC-3
  growth inhibition (GI): 12%
[1]
  growth inhibition (GI): <10%
MDA-MB-435
  growth inhibition (GI): <10%
SF-268
  growth inhibition (GI): <10%
NCI-H522
  growth inhibition (GI): 18.7%
SK-OV-3
  growth inhibition (GI): <10%
UACC-257
  growth inhibition (GI): <10%
SK-MEL-2
  growth inhibition (GI): <10%
[2]
  growth inhibition (GI): 27.8%
CCRF-CEM
  growth inhibition (GI): 16.3%
MCF7
  growth inhibition (GI): 10.9%
HOP-62
  growth inhibition (GI): <10%
EKVX
  growth inhibition (GI): <10%
CAKI-1
  growth inhibition (GI): <10%
SN12C
  growth inhibition (GI): 11.9%
SK-MEL-5
  growth inhibition (GI): 10.1%
LOX IMVI
  growth inhibition (GI): <10%
HT-29
  growth inhibition (GI): 18.6%
NCI-H23
  growth inhibition (GI): 13.7%
BT-549
  growth inhibition (GI): <10%
HL-60
  growth inhibition (GI): 19.6%
MOLT-4
  growth inhibition (GI): 36.3%
RXF 393
  growth inhibition (GI): <10%
OVCAR-8
  growth inhibition (GI): <10%
SNB-75
  growth inhibition (GI): 14.9%
SW-620
  growth inhibition (GI): <10%
SF-539
  growth inhibition (GI): <10%
K562
  growth inhibition (GI): 21.6%
UACC-62
  growth inhibition (GI): 20.5%
HOP-92
  growth inhibition (GI): 23.7%
HCT-15
  growth inhibition (GI): <10%
SK-MEL-28
  growth inhibition (GI): <10%
KM12
  growth inhibition (GI): <10%
T47D
  growth inhibition (GI): <10%
OVCAR-3
  growth inhibition (GI): <10%
U-251
  growth inhibition (GI): <10%
UO-31
  growth inhibition (GI): 38.6%
SR
  growth inhibition (GI): <10%
NCI-H226
  growth inhibition (GI): 14.1%
IGROV-1
  growth inhibition (GI): <10%
MDA-MB-468
  growth inhibition (GI): <10%
SF-295
  growth inhibition (GI): 24.2%
OVCAR-5
  growth inhibition (GI): <10%
TK-10
  growth inhibition (GI): <10%
HCT-116
  growth inhibition (GI): 19.4%
SNB-19
  growth inhibition (GI): <10%
HCC 2998
  growth inhibition (GI): <10%
ACHN
  growth inhibition (GI): <10%
A549
  growth inhibition (GI): 12%
RPMI-8226
  growth inhibition (GI): 25.4%
OVCAR-4
  growth inhibition (GI): <10%
MDA-MB-231
  growth inhibition (GI): <10%
M14
  growth inhibition (GI): <10%
Malme-3M
  growth inhibition (GI): <10%
